Test results reported in patent US20240381868A1, “AGED AQUEOUS ANTIMICROBIAL COMPOSITION” (EVONIK CORPORATION, priority 2021, published 2024).

Tests used:
[1] = Formation and stability of other peracids at room temperature (titration); type: physicochemical
Description: (§1) The concentrations of formed peracids and hydrogen peroxide were monitored by titration on an auto-titrator and by using Chemetrics test kits K7913F and K-5543.
Various other peracids were also prepared using corresponding organic acid precursors and hydrogen peroxide as described in the Example 1. Only the acids with low or no odor were used in the experiment. The solutions were kept at room temperature and periodically tested for the concentration of the components using an auto-titrator and standard titration methods.

[2] = Formation and stability of peroxycitric acid solutions at room temperature (titration); type: physicochemical; conditions: H2SO4 catalyst
Description: as §1
Two solutions were prepared using solid citric acid (47.9 wt %), 70 wt % hydrogen peroxide (21.8 wt %) and the rest DI water. 0.6 wt % Dequest 2010 stabilizer was added to both solutions. To the first solution (PCA-1), 4.9 wt % concentrated sulfuric acid was added as a catalyst. To the second solution (PCA-2), 0.6 wt % of sulfuric acid was added. Both solutions were kept at room temperature and periodically tested for the concentration of the components using an auto-titrator and standard titration methods.

Compound | concentration of peracid formed [1] [wt %] | Peracid Concentration ([1]; 3 days) [mol/kg] | Peracid Concentration ([1]; 7 days) [mol/kg] | Peracid Concentration ([1]; 14 days) [mol/kg] | max peracid concentration formed [1] [wt %] | time for which peracid was stable [1] | Peracid Concentration ([1]; 1 day) [mol/kg] | Peracid Concentration ([1]; 22 days) [mol/kg] | Peracid Concentration ([1]; 78 days) [mol/kg] | time to reach maximum concentration of PCA [2] [days]
O=C(O)C(=O)OO [Peroxyoxalic, peroxalic acid] | < 1.0 | 0.047 | 0.066 | 0.057 | – | – | – | – | – | –
O=C(O)/C=C\C(=O)OO [Peroxymaleic, Permaleic acid] | – | – | 0.386 | 0.379 | 5.1 | at least 78 days | 0.235 | 0.348 | 0.318 | –
O=C(O)CC(=O)OO [Peroxymalonic, permalonic acid] | – | 0.442 | 0.200 | 0.083 | – | – | – | – | – | –
O=C(O)CCCC(=O)OO [Peroxyglutaric, perglutaric acid] | – | 1.189 | 1.081 | 0.986 | – | – | 0.993 | 0.919 | – | –
Percitric acid [PCA] | – | – | – | – | – | – | – | – | – | 3 to 7
